# From patent US20230348376A1 (TEIJIN PHARMA LIMITED, priority 2020, published 2023)
# Tested on: rat oligodendrocyte progenitor cells
# Assay: Promotive activity of rat oligodendrocyte progenitor cell differentiation-2 (immunostaining of MBP)
# Format: cell-based
# Conditions: Test 3; vitamin D derivative 2 μM, T3 30 nM; 4 days
# Description: The promotive activity of oligodendrocyte progenitor cell (OPC) differentiation of the vitamin D derivatives was evaluated by immunostaining of MBP.
# Subsequently, oligodendrocyte progenitor cell separation medium was added to the flask, and the mixture was similarly shaken for about 22 hours (37° C., 200 rpm), and the supernatant was collected to prepare oligodendrocyte progenitor cells.
row,SMILES,Mean (number of MBP-positive cells/number of Hoechst33342-positive cells)
1,"C=C1/C(=C\C=C2/CCC[C@]3(C)[C@@H]([C@H](C)CN4CCOC[C@@H]4C)CC[C@@H]23)C[C@@H](O)C[C@@H]1O [Compound F004, (1R,3S,Z)-5-(2-((1R,3aS,7aR,E)-7a-methyl-1-((S)-1-((S)-3-methylmorpholino)propan-2-yl)octahydro-4H-inden-4-ylidene)ethylidene)-4-methylenecyclohexane-1,3-diol]",0.37
2,"C=C1/C(=C\C=C2/CCC[C@]3(C)[C@@H]([C@H](C)CN4CCOC[C@H]4C)CC[C@@H]23)C[C@@H](O)C[C@@H]1O [Compound F005, (1R,3S,Z)-5-(2-((1R,3aS,7aR,E)-7a-methyl-1-((S)-1-((R)-3-methylmorpholino)propan-2-yl)octahydro-4H-inden-4-ylidene)ethylidene)-4-methylenecyclohexane-1,3-diol]",0.40
3,"C[C@H](CN1CCCC[C@@H]1C)[C@H]1CC[C@H]2/C(=C/C=C3C[C@@H](O)C[C@H](O)C3)CCC[C@]12C [Compound G001, (1R,3R)-5-(2-((1R,3aS,7aR,E)-7a-methyl-1-((S)-1-((S)-2-methylpiperidin-1-yl)propan-2-yl)octahydro-4H-inden-4-ylidene)ethylidene)cyclohexane-1,3-diol]",0.34
4,"C[C@H](CN1CCCC[C@H]1C)[C@H]1CC[C@H]2/C(=C/C=C3C[C@@H](O)C[C@H](O)C3)CCC[C@]12C [Compound G002, (1R,3R)-5-(2-((1R,3aS,7aR,E)-7a-methyl-1-((S)-1-((R)-2-methylpiperidin-1-yl)propan-2-yl)octahydro-4H-inden-4-ylidene)ethylidene)cyclohexane-1,3-diol]",0.33
5,"C[C@H](CN1CCCCC1(C)C)[C@H]1CC[C@H]2/C(=C/C=C3C[C@@H](O)C[C@H](O)C3)CCC[C@]12C [Compound G003, (1R,3R)-5-(2-((1R,3aS,7aR,E)-1-((S)-1-(2,2-dimethylpiperidin-1-yl)propan-2-yl)-7a-methyloctahydro-4H-inden-4-ylidene)ethylidene)cyclohexane-1,3-diol]",0.47

# Same assay, conditions: Test 4; vitamin D derivative 2 μM, T3 30 nM; 4 days
row,SMILES,Mean (number of MBP-positive cells/number of Hoechst33342-positive cells)
1,"C=C1/C(=C\C=C2/CCC[C@]3(C)[C@@H]([C@H](C)CN4CCOCC4(C)C)CC[C@@H]23)C[C@@H](O)C[C@@H]1O [Compound F006, (1R,3S,Z)-5-(2-((1R,3aS,7aR,E)-1-((S)-1-(3,3-dimethylmorpholino)propan-2-yl)-7a-methyloctahydro-4H-inden-4-ylidene)ethylidene)-4-methylenecyclohexane-1,3-diol]",0.44
2,"C[C@H](CN1CCOCC12CC2)[C@H]1CC[C@H]2/C(=C/C=C3C[C@@H](O)C[C@H](O)C3)CCC[C@]12C [Compound G007, (1R,3R)-5-(2-((1R,3aS,7aR,E)-1-((S)-1-(7-oxa-4-azaspiro[2.5]octan-4-yl)propan-2-yl)-7a-methyloctahydro-4H-inden-4-ylidene)ethylidene)cyclohexane-1,3-diol]",0.34

# Same assay, conditions: Test 5; vitamin D derivative 2 μM, T3 30 nM; 4 days
row,SMILES,Mean (number of MBP-positive cells/number of Hoechst33342-positive cells)
1,"C=C1/C(=C\C=C2/CCC[C@]3(C)[C@@H]([C@H](C)CN4CCOC[C@@H]4C4CC4)CC[C@@H]23)C[C@@H](O)C[C@@H]1O [Compound F008, (1R,3 S,Z)-5-(2-((1R,3aS,7aR,E)-1-((S)-1-((S)-3-cyclopropylmorpholino)propan-2-yl)-7a-methyloctahydro-4H-inden-4-ylidene)ethylidene)-4-methylenecyclohexane-1,3-diol]",0.45
2,"C=C1/C(=C\C=C2/CCC[C@]3(C)[C@@H]([C@H](C)CN4CCN(C)C[C@@H]4C)CC[C@@H]23)C[C@@H](O)C[C@@H]1O [Compound F011, (1R,3S,Z)-5-(2-((1R,3aS,7aR,E)-1-((S)-1-((S)-2,4-dimethylpiperazin-1-yl)propan-2-yl)-7a-methyloctahydro-4H-inden-4-ylidene)ethylidene)-4-methylenecyclohexane-1,3-diol]",0.26
3,"C[C@H](CN1CCOC[C@@H]1C1CC1)[C@H]1CC[C@H]2/C(=C/C=C3C[C@@H](O)C[C@H](O)C3)CCC[C@]12C [Compound G008, (1R,3R)-5-(2-((1R,3aS,7aR,E)-1-((S)-1-((S)-3-cyclopropylmorpholino)propan-2-yl)-7a-methyloctahydro-4H-inden-4-ylidene)ethylidene)cyclohexane-1,3-diol]",0.36
4,"C[C@H](CN1CCN(C)C[C@@H]1C)[C@H]1CC[C@H]2/C(=C/C=C3C[C@@H](O)C[C@H](O)C3)CCC[C@]12C [Compound G011, (1R,3R)-5-(2-((1R,3aS,7aR,E)-1-((S)-1-((S)-2,4-dimethylpiperazin-1-yl)propan-2-yl)-7a-methyloctahydro-4H-inden-4-ylidene)ethylidene)cyclohexane-1,3-diol]",0.22
5,"C[C@H](CN1CCN(C)C[C@H]1C)[C@H]1CC[C@H]2/C(=C/C=C3C[C@@H](O)C[C@H](O)C3)CCC[C@]12C [Compound G012, (1R,3R)-5-(2-((1R,3aS,7aR,E)-1-((S)-1-((R)-2,4-dimethylpiperazin-1-yl)propan-2-yl)-7a-methyloctahydro-4H-inden-4-ylidene)ethylidene)cyclohexane-1,3-diol]",0.22

# Same assay, conditions: Test 6; vitamin D derivative 2 μM, T3 30 nM; 4 days
row,SMILES,Mean (number of MBP-positive cells/number of Hoechst33342-positive cells)
1,"C[C@H](CN1CCC[C@@H]1C(C)(C)O)[C@H]1CC[C@H]2/C(=C/C=C3C[C@@H](O)C[C@H](O)C3)CCC[C@]12C [Compound G013, (1R,3R)-5-(2-((1R,3aS,7aR,E)-1-((S)-1-((R)-2-(2-hydroxypropan-2-yl)pyrrolidin-1-yl)propan-2-yl)-7a-methyloctahydro-4H-inden-4-ylidene)ethylidene)cyclohexane-1,3-diol]",0.55

# Same assay, conditions: Test 7; vitamin D derivative 2 μM, T3 30 nM; 4 days
row,SMILES,Mean (number of MBP-positive cells/number of Hoechst33342-positive cells)
1,"C=C1/C(=C\C=C2/CCC[C@]3(C)[C@@H]([C@H](C)CN4CCCC[C@@H]4C)CC[C@@H]23)C[C@@H](O)C[C@@H]1O [Compound F001, (1R,3S,Z)-5-(2-((1R,3aS,7aR,E)-7a-methyl-1-((S)-1-((S)-2-methylpiperidin-1-yl)propan-2-yl)octahydro-4H-inden-4-ylidene)ethylidene)-4-methylenecyclohexane-1,3-diol]",0.29
2,"C=C1/C(=C\C=C2/CCC[C@]3(C)[C@@H]([C@H](C)CN4CCCC[C@H]4C)CC[C@@H]23)C[C@@H](O)C[C@@H]1O [Compound F002, (1R,3S,Z)-5-(2-((1R,3aS,7aR,E)-7a-methyl-1-((S)-1-((R)-2-methylpiperidin-1-yl)propan-2-yl)octahydro-4H-inden-4-ylidene)ethylidene)-4-methylenecyclohexane-1,3-diol]",0.31
3,"C=C1/C(=C\C=C2/CCC[C@]3(C)[C@@H]([C@H](C)CN4CCCCC4(C)C)CC[C@@H]23)C[C@@H](O)C[C@@H]1O [Compound F003, (1R,3S,Z)-5-(2-((1R,3aS,7aR,E)-1-((S)-1-(2,2-dimethylpiperidin-1-yl)propan-2-yl)-7a-methyloctahydro-4H-inden-4-ylidene)ethylidene)-4-methylenecyclohexane-1,3-diol]",0.32
4,"C=C1/C(=C\C=C2/CCC[C@]3(C)[C@@H]([C@H](C)CN4CCN(C)C[C@H]4C)CC[C@@H]23)C[C@@H](O)C[C@@H]1O [Compound F012, (1R,3S,Z)-5-(2-((1R,3aS,7aR,E)-1-((S)-1-((R)-2,4-dimethylpiperazin-1-yl)propan-2-yl)-7a-methyloctahydro-4H-inden-4-ylidene)ethylidene)-4-methylenecyclohexane-1,3-diol]",0.23

# Same assay, conditions: Test 8; vitamin D derivative 2 μM, T3 30 nM; 4 days
row,SMILES,Mean (number of MBP-positive cells/number of Hoechst33342-positive cells)
1,"C=C1/C(=C\C=C2/CCC[C@]3(C)[C@@H]([C@H](C)CN4CCC[C@H]4C(C)(C)O)CC[C@@H]23)C[C@@H](O)C[C@@H]1O [Compound F014, (1R,3S,Z)-5-(2-((1R,3aS,7aR,E)-1-((S)-1-((S)-2-(2-hydroxypropan-2-yl)pyrrolidin-1-yl)propan-2-yl)-7a-methyloctahydro-4H-inden-4-ylidene)ethylidene)-4-methylenecyclohexane-1,3-diol]",0.29
2,"C=C1/C(=C\C=C2/CCC[C@]3(C)[C@@H]([C@H](C)CN4CCC[C@@H]4C(C)(C)OC)CC[C@@H]23)C[C@@H](O)C[C@@H]1O [Compound F015, (1R,3S,Z)-5-(2-((1R,3aS,7aR,E)-1-((S)-1-((R)-2-(2-methoxypropan-2-yl)pyrrolidin-1-yl)propan-2-yl)-7a-methyloctahydro-4H-inden-4-ylidene)ethylidene)-4-methylenecyclohexane-1,3-diol]",0.35
3,"C=C1/C(=C\C=C2/CCC[C@]3(C)[C@@H]([C@H](C)CN4CCC[C@H]4C(C)(C)OC)CC[C@@H]23)C[C@@H](O)C[C@@H]1O [Compound F016, (1R,3S,Z)-5-(2-((1R,3aS,7aR,E)-1-((S)-1-((S)-2-(2-methoxypropan-2-yl)pyrrolidin-1-yl)propan-2-yl)-7a-methyloctahydro-4H-inden-4-ylidene)ethylidene)-4-methylenecyclohexane-1,3-diol]",0.32

# Same assay, conditions: Test 9; vitamin D derivative 2 μM, T3 30 nM; 4 days
row,SMILES,Mean (number of MBP-positive cells/number of Hoechst33342-positive cells)
1,"C=C1/C(=C\C=C2/CCC[C@]3(C)[C@@H]([C@H](C)CN4CCC[C@@H]4C(C)(C)O)CC[C@@H]23)C[C@@H](O)C[C@@H]1O [Compound F013, (1R,3S,Z)-5-(2-((1R,3aS,7aR,E)-1-((S)-1-((R)-2-(2-hydroxypropan-2-yl)pyrrolidin-1-yl)propan-2-yl)-7a-methyloctahydro-4H-inden-4-ylidene)ethylidene)-4-methylenecyclohexane-1,3-diol]",0.31
